Measurements published in article PMC8382911 (Molecular Biology and Evolution, 2021).
Changes are numbered by the printed parent chain. Where “and” joins values, the source holds several entries; their conditions need not be identical. Identical values can stand only once.

T1: Anc80 MalDH (synthetic construct, UniProt Z9KM54M7L8)
T1 construct: tetramer
T1 sequence (Z9KM54M7L8 1-304): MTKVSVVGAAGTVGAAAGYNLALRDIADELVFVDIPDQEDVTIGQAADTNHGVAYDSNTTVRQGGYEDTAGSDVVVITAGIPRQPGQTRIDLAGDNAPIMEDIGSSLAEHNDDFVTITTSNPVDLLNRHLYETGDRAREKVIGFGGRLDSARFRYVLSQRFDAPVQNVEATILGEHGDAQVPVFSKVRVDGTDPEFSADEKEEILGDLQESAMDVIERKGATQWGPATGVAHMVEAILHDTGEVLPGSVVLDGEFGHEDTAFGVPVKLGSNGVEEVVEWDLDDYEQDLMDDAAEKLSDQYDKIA

T2: N. maga MalDH (Natrialba magadii, UniProt D3SVD7)
T2 construct: gene mdh; tetrameric MalDH family
T2 sequence (D3SVD7 1-304): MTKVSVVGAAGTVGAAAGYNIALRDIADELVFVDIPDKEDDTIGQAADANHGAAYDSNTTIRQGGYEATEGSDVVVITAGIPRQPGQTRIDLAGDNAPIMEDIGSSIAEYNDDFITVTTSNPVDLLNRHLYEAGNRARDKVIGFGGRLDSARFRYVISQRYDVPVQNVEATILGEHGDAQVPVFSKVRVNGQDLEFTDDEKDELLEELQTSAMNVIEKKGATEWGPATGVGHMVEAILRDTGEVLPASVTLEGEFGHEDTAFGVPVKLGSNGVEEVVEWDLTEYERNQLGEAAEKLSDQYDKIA

T3: Anc88 MalDH (synthetic construct, UniProt Z9B5L9LSO7)
T3 sequence (Z9B5L9LSO7 1-304): T1 sequence (Z9KM54M7L8 1-304) with L21I, V41D, I204L, G247A, V250K

T4: H. mari MalDH (Haloarcula marismortui, UniProt Q07841)
T4 construct: gene mdh; tetramer about 130 kDa
T4 sequence (Q07841 1-304): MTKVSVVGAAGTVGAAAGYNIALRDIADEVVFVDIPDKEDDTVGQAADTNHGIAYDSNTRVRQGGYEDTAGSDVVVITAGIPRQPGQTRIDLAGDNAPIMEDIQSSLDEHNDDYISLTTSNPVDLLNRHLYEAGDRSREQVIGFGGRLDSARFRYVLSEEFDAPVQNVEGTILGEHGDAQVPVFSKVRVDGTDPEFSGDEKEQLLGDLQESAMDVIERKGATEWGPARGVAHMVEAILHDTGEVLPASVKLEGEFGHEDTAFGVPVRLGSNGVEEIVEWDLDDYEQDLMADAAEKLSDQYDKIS

B1: Haloferax volcanii malate dehydrogenase (enzyme, UniProt Q9P9L2 1-304, looked up)
chain: MTKVSVIGAAGTVGAAAGYNLALRDVCDELVFVDIPKMEDKTVGQAADTNHGIAYDSNTVVTQGGYEDTAGSDVVVITAGIPRQPGQTRIDLAGDNAPIMDDIGSSLAEYNDDFVSITTSNPVDLLNRHLYETGDRDRHKVIGFGGRLDSARFRYVLSQRFDVPVKNVDATILGEHGDAQVPVFSKVRVDGNDPAFSADEKEEILGDLQESAMDVIERKGATQWGPATGVAHMVEAVLHDTGEVLPGSLVLDGEFGYEDTAFGVPVKLGSNGIEEVVEWDLDDYEADLMDDAAEKLRDQYDEIA
notes: malate dehydrogenase (MalDH) of Haloferax volcanii; S6-S8; Tetramer in molar KCl; the oligomeric state depends on salt type and concentration (monomer in 0.2 M KCl); also called H. volc MalDH; MalDH of H. volcanii

Tests used:
[1] = target: T1, Anc80 MalDH; experiment: NADH oxidation at […] nm, OAA concentration profile; type: biochemical; details: 3.8 M KCl, 50 mM Tris-HCl pH 7, 25 C, 0.2 mM NADH; inhibited by excess substrate
[2] = target: T2, N. maga MalDH; experiment: NADH oxidation at […] nm, OAA concentration profile; type: biochemical; details: 3.8 M KCl, 50 mM Tris-HCl pH 7, 25 C, 0.2 mM NADH; no inhibition by excess substrate
[3] = target: T3, Anc88 MalDH; experiment: NADH oxidation at […] nm, OAA concentration profile; type: biochemical; details: 3.8 M KCl, 50 mM Tris-HCl pH 7, 25 C, 0.2 mM NADH; no inhibition by excess substrate
[4] = tested on: Anc78 MalDH (LCAHa) (synthetic construct); experiment: NADH oxidation at […] nm, OAA concentration profile; type: biochemical; details: 3.8 M KCl, 50 mM Tris-HCl pH 7, 25 C, 0.2 mM NADH; inhibited by excess substrate
[5] = target: T4, H. mari MalDH; experiment: NADH oxidation at […] nm, OAA concentration profile; type: biochemical; details: 3.8 M KCl, 50 mM Tris-HCl pH 7, 25 C, 0.2 mM NADH; no inhibition by excess substrate
[6] = target: the molecule itself; experiment: AUC; sedimentation velocity, 20 °C, 0.1 mg/ml, 50 mM Tris pH 7.0, 1.0 M KCl
[7] = target: the molecule itself; experiment: AUC; sedimentation velocity, 20 °C, 0.1 mg/ml, 50 mM Tris pH 7.0, 0.1 M KCl + 0.05 M MgCl2
[8] = target: the molecule itself; experiment: AUC; sedimentation velocity, 20 °C, 0.1 mg/ml, 50 mM Tris pH 7.0, 0.2 M KF, after 24 h incubation

| Molecule | NADH oxidation at 340 nm, OAA concentration profile [1] | NADH oxidation at 340 nm, OAA concentration profile [2] | NADH oxidation at 340 nm, OAA concentration profile [3] | NADH oxidation at 340 nm, OAA concentration profile [4] | NADH oxidation at 340 nm, OAA concentration profile [5] | stoichiometry N [6] | stoichiometry N [7] | stoichiometry N [8] |
| --- | --- | --- | --- | --- | --- | --- | --- | --- |
| O=C(O)CC(=O)C(=O)O [oxaloacetate] | Anc78 and Anc80 MalDHs show a typical phenomenon of inhibition by an excess of substrate | the inhibition by high concentration of OAA is abolished (fig. 7C) | (Anc88), the inhibition by high concentration of OAA is abolished (fig. 7C) | Anc78 and Anc80 MalDHs show a typical phenomenon of inhibition by an excess of substrate | H. mari MalDH is not sensitive to inhibition by high concentration of OAA |  |  |  |
| B1 |  |  |  |  |  | 4 | 4 | 4 and 2 |
